The source of these data is US11203777B2, “Method of preparing sterilized compositions for stabilization of extracellular nucleic acids” (Qiagen GmbH, priority 2015, dated 2021).

Data set [1] can be described thus: HPLC quantification of caspase inhibitor in stabilization reagent before and after gamma irradiation. Type of data set: physicochemical. The method, then:
Caspase inhibitor (Q-VD-OPh) was dissolved and diluted in DMSO for generation of a standard curve. Concentrations of 7.5, 15, 30 and 60 μg/ml were used to generate the standard curve.
Stabilization reagents containing a mixture of caspase inhibitor, EDTA, DMPA and PEG were tested before and after gamma irradiation. Unique peaks for caspase inhibitor were identified and compared to the standard curve for total quantification of caspase inhibitor. The concentration of caspase inhibitor was determined before and after irradiation, and these concentrations were compared for relative quantification.
For the production of PAXgene Blood ccfDNA Alpha blood collection tubes (Alpha BCT), BD standard tubes for 10 ml blood draw were filled with 1.3-1.7 ml ccfDNA stabilization reagent. The exemplary stabilization reagents tested comprised a mixture of caspase inhibitor (Q-VD-OPh), K2EDTA, DMPA, PEG300 and PEG10000, according to PCT/EP2015/055699. A vacuum was applied to the tubes to allow for a 10.25 ml blood draw. Tubes were sterilized by gamma irradiation using Cobalt-60 as energetic gamma ray source in a range of 5 to 35 kGy. […]
Stabilization reagents were produced with or without the addition of radical scavengers and sterilized in bulk by gamma irradiation. The caspase inhibitor concentration was measured by HPLC before and after irradiation to determine the effect of scavenger addition on caspase inhibitor degradation during sterilization by gamma irradiation.
Stabilization reagents according to PCT/EP2015/055699 were produced with or without the addition of radical scavengers in different concentrations and with different concentrations of caspase inhibitor. PAXgene Blood ccfDNA Alpha tubes were produced by filling 1.7 ml of the respective stabilization reagent into a standard Vacutainer. Tubes were sterilized by gamma irradiation with different energy levels. The caspase inhibitor concentration was measured by HPLC before and after irradiation (see Table 7 below).

Data set [2] concerns ccfDNA level in whole blood (66 bp and 500 bp fragments of the 18S rDNA gene). The data set is described as follows: ccfDNA stabilization in stored whole blood, real time PCR of 18S rDNA fragments in plasma. (In general: In qPCR the cycle at which signal appears reflects the starting amount.)
Protocol: Blood was drawn into Alpha BCT for stabilization of the ccfDNA level. 10 ml spray dried EDTA tubes (BD) with 1.8 mg K2EDTA per ml of whole blood served as non-stabilized negative control. Blood and reagents were mixed by inverting the tube ten times. Stabilized and non-stabilized blood samples were stored at room temperature standing in an upright position.
Whole blood samples were centrifuged at ambient temperature for 15 min at 1.900×g. The clear plasma fraction was transferred into a fresh centrifuge tube. In a second round, plasma samples were centrifuged for 10 min at 16.000×g in case of non-stabilized EDTA-blood or for 10 min at 1.900×g in case of stabilized Alpha BCT blood. The supernatant was transferred into a new tube and used either directly for the purification of ccfDNA or stored at −20° C. until use.
DNA from plasma was isolated with the QIAamp circulating nucleic acid kit (QIAGEN GmbH), using the protocol for purification of circulating nucleic acids from 1 ml, 2 ml, or 3 ml serum or plasma. If not stated otherwise, 2 ml of plasma was mixed with proteinase K and lysis buffer ACL, incubated for 30 min at 60° C., mixed with buffer ACB, bound on QIAamp Mini columns with the use of a QIAvac 24 Plus vacuum manifold, washed and eluted with 60 μl elution buffer AVE, according to the manufactures recommendations.
ccfDNA from 2 ml plasma was isolated with a preliminary version of the QIAsymphony Circulating DNA protocol and kit (QIAGEN). If not stated otherwise, the QIAsymphony robot mixed 2 ml of plasma with proteinase K, binding buffer and magnetic beads. Beads with bound DNA were washed three times and DNA was eluted using 60 μl elution buffer.
To measure the amount of ccfDNA, a real time PCR assay on Abi Prism HT7900 (Life Technologies) was performed with 3 μl of eluate. In a 20 μl assay volume using QuantiTect Multiplex PCR Kit reagents (QIAGEN GmbH), two fragments of the human 18S rDNA gene were amplified in a multiplex PCR. Total quantification was achieved by comparison with a standard curve generated with human genomic DNA diluted from 3000 to 0.3 genome equivalents (1 genome equivalent equates to around 6.6 μg of human genomic DNA).
Quantification of the 66 bp fragment was used to reflect the total amount of 18S rDNA copies in the plasma. Quantification of the 500 bp was used to determine the amount of 18S rDNA copies which derived from apoptotic or mechanically lysed leukocytes from whole blood. […] The increase of copy numbers from the 500 bp fragment between day 0 and 3 or 6 days storage, was used as a measurement of stability efficiency.
PAXgene Blood ccfDNA Alpha tubes were produced and sterilized by gamma irradiation with different energy levels. Samples of 10 ml whole blood from eight donors were collected in 10 ml spray dry K2EDTA tubes (non-stabilized controls) and in PAXgene Blood ccfDNA Alpha tubes. Plasma was generated from 5 ml of stabilized or non-stabilized blood samples directly after blood draw. Residual blood was stored for additional 6 days at room temperature before plasma generation. ccfDNA was purified manually from 2 ml plasma, copy numbers of 18S rDNA gene were determined in triplicates by real time PCR.
Samples of 10 ml whole blood from eight donors were collected in 10 ml spray dry K2EDTA tubes. Directly after blood draw, non-stabilized blood samples were stabilized by addition of 1.7 ml of a ccfDNA stabilization reagent according to PCT/EP2015/055699 with or without addition of the different compounds tested for their impact on extracellular nucleic acid stabilization.
Plasma was generated from 5 ml of stabilized blood samples directly after the blood draw (day 0).
Setting [3] is: scavenger 0.5-10 mg/ml, 0.05-1% (w/v).

The structures appear in SMILES notation.

Regarding `CC(=O)N[C@@H](CS)C(=O)O` [N-acetyl-L-cysteine], in data set [1] (scavenger 2 mg/ml-12 mM, 50 ml bulk), the “[Casp] (Pre-Irr)” value worked out at 16.468 µg/mL. In addition, the “[Casp] (Post-Irr)” value in data set [1] (scavenger 2 mg/ml-12 mM, 50 ml bulk, 25 kGy) is 14.1849 µg/mL. Besides, in data set [1] (setting [3]), the “Protection against gamma irradiation” value is reported as “high”. Moreover, the “protection of caspase inhibitors from gamma-irradiation (copy numbers of the 500 bp fragment)” value in data set [2] (0.5 mg/ml in reagent, 30 kGy, 6 donors, 5 days at room temperature, FIG. 10) was “efficiently protected the caspase inhibitors Boc-D-(OMe)-FMK and Z-VAD (OMe)-FMK from gamma-irradiation”. The “Effect on ccfDNA stability” value in data set [2] (setting [3]) was “neutral”.
